Laboratory results: patent US8129327B2, “Packaging for high moisture bar soap” (The Procter & Gamble Company, priority 2006, dated 2012)

What was measured:
aspergillus sydowii = assay: inhibition of mold growth on paperboard package containing high moisture bar soap; conditions: fungicide-treated paperboard package containing high moisture bar soap
Excerpt: (§1) The present invention further relates to a method of inhibiting the growth of mold, especially certain species of mold such as aspergillus sydowii and/or penicillium chrysogenum, that can grow on a paperboard package containing a high moisture bar soap composition.
(§2) Such a fungicide material is commercially available from Intace S.A. under the tradename INTACE B-6773.

penicillium chrysogenum = assay: as above; conditions: fungicide-treated paperboard package containing high moisture bar soap
Excerpt: as §1, §2

Structure (SMILES): COC(=O)Nc1nc2ccccc2[nH]1 [carbendazim]
- inhibition of the growth of mold on paperboard packaging (aspergillus sydowii): typically resistant
- inhibition of the growth of mold on paperboard packaging (penicillium chrysogenum): typically resistant
